Measurements published in patent publication US11814444B2, “Cyclic polypeptides for PCSK9 inhibition” (Ra Pharmaceuticals, Inc., priority 2018, dated 2023).
Numbered stars: 1 amine (or outer) side, 2 acyl side, 3 side chain; on linkers, the order of the positions; unused ones are H or OH. Bridge positions count the residues as written; N and C are the ends. Square brackets hold non-standard residues; d marks the D form. Peptide text beside a SMILES is read from it. Trp(7-aza) = N[C@@H](Cc1c[nH]c2ncccc12)C(=O)O; X7 = O=C(CCSCc1cccc(CSCCN[*:1])c1)[*:2]; Ala(2-furyl) = N[C@@H](Cc1ccco1)C(=O)O; 1Nal = N[C@@H](Cc1cccc2ccccc12)C(=O)O; mXylylene = c1cc(C[*:1])cc(C[*:2])c1; 3Thi = N[C@@H](Cc1ccsc1)C(=O)O; Aad = N[C@@H](CCCC(=O)O)C(=O)O; Chg = N[C@H](C(=O)O)C1CCCCC1; Tle = CC(C)(C)[C@H](N)C(=O)O; αMeV = CC(C)[C@](C)(N)C(=O)O; NMeV = CN[C@H](C(=O)O)C(C)C; S5 = C=CCCC[C@](C)(N)C(=O)O; Iva = CC[C@](C)(N)C(=O)O; Nva = CCC[C@H](N)C(=O)O; Aib = CC(C)(N)C(=O)O; Mpa = O=C(O)CCS

Target: human PCSK9 / human LDLR EGFa domain interaction (Homo sapiens, UniProt Q8NBP7)
Assay: TR-FRET assay of inhibition of the PCSK9-LDLR protein-protein interaction
Assay type: binding
Details: 20 nM avitag-biotinylated human PCSK9, 20 nM his-tagged human LDLR EGFa domain, 2 hours, room temperature
Experimental: A time-resolved fluorescence resonance energy (TR-FRET) assay was used to measure inhibition of the PCSK9-LDLR protein-protein interaction. Briefly, 20 nM avitag-biotinylated human PCSK9 was incubated with 20 nM his-tagged human LDLR EGFa domain in the presence of 5 nM LANCE Ulight Streptavidin (Perkin Elmer) and 5 nM europium-Anti-6×His (Perkin Elmer) for 2 hours covered at room temperature in buffer containing 50 mM HEPES, 150 mM NaCl, 5 mM CaCl2), 0.01% BSA and 0.01% Surfactant P20. Compounds were tested in dose-response and concentrations giving half-maximal inhibition calculated using a 4-parameter fit equation.

Sequence of human PCSK9 / human LDLR EGFa domain interaction (Q8NBP7 153-692): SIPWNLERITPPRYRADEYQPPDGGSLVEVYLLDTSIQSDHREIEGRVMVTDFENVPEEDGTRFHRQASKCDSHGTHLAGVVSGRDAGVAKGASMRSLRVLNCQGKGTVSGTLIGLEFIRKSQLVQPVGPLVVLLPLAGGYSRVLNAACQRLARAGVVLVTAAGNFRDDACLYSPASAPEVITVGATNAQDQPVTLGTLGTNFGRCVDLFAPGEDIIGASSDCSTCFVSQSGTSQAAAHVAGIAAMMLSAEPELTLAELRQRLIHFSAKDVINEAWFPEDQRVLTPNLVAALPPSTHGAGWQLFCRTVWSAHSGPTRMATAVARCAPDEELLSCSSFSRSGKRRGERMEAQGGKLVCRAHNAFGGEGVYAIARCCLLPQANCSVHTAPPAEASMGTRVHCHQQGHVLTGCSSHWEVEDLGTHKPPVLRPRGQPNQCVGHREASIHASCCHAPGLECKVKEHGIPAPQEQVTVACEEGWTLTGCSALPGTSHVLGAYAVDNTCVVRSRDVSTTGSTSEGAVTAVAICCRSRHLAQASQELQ
Sequence of human PCSK9 / human LDLR EGFa domain interaction (Q8NBP7 31-152 partner limits assumed): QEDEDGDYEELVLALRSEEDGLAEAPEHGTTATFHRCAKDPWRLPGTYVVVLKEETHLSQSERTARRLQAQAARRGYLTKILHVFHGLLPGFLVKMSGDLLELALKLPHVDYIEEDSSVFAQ

C=CCCC[C@]1(C)NC(=O)[C@H](Cc2cccc3ccccc23)NC(=O)[C@H]([C@@H](C)O)NC(=O)[C@@H]2CCCN2C(=O)[C@H](Cc2ccc(O)cc2)NC(=O)[C@H](C(C)(C)C)NC(=O)[C@@H](NC(C)=O)CCCC(=O)NCCCC[C@@H](C(N)=O)NC(=O)[C@](C)(CCCC=C)NC(=O)[C@H](CCC)NC(=O)[C@H](Cc2ccc(O)cc2)NC(=O)[C@H](C)NC1=O [Compound 044] (Ac-[Aad][Tle]YPT[1Nal][S5]AY[Nva][S5]K-NH2; lactam 1-12)
IC50: 100 to 1000 nM

CCC[C@@H]1NC(=O)[C@H](Cc2ccc(O)cc2)NC(=O)[C@H](C)NC(=O)C(C)(C)NC(=O)[C@H](Cc2c[nH]c3ncccc23)NC(=O)[C@H]([C@@H](C)O)NC(=O)[C@@H]2CCCN2C(=O)[C@H](Cc2ccc(O)cc2)NC(=O)[C@H](C(C)(C)C)NC(=O)[C@@H](NC(C)=O)CCCC(=O)NCCCC[C@@H](C(N)=O)NC(=O)C(C)(C)NC1=O [Compound 049] (Ac-[Aad][Tle]YPT[Trp(7-aza)][Aib]AY[Nva][Aib]K-NH2; lactam 1-12)
IC50: 100 to 1000 nM

C=CCCC[C@]1(C)NC(=O)[C@H](CCC)NC(=O)[C@H](Cc2ccc(O)cc2)NC(=O)[C@H](C)NC(=O)[C@](C)(CC)NC(=O)[C@H](Cc2c[nH]c3ncccc23)NC(=O)[C@H]([C@@H](C)O)NC(=O)[C@@H]2CCCN2C(=O)[C@H](Cc2ccc(O)cc2)NC(=O)[C@H](C(C)(C)C)NC(=O)[C@@H](NC(C)=O)CCCC(=O)NCCCC[C@@H](C(N)=O)NC1=O [Compound 050] (Ac-[Aad][Tle]YPT[Trp(7-aza)][Iva]AY[Nva][S5]K-NH2; lactam 1-12)
IC50: 1000 to 21000 nM

CCC[C@@H]1NC(=O)[C@H]([C@@H](C)O)NC(=O)[C@@H]2CCCN2C(=O)[C@H](Cc2ccc(O)cc2)NC(=O)[C@H](C(C)(C)C)NC(=O)[C@@H](NC(C)=O)CCCCNC(=O)CCC[C@@H](C(N)=O)NC(=O)[C@H]([C@@H](C)O)NC(=O)[C@](C)(C(C)C)NC(=O)[C@H](Cc2ccc(O)cc2)NC(=O)[C@H](C)NC1=O [Compound 057] (Ac-K[Tle]YPT[Nva]AY[αMeV]T[Aad]-NH2; lactam 1-11)
IC50: 1000 to 21000 nM

CCC[C@@H]1NC(=O)[C@H](Cc2c[nH]c3ncccc23)NC(=O)[C@H]([C@@H](C)O)NC(=O)[C@@H]2CCCN2C(=O)[C@H](Cc2ccc(O)cc2)NC(=O)[C@H](C(C)(C)C)NC(=O)[C@@H](NC(C)=O)CCCC(=O)NCCCC[C@H](C(N)=O)NC(=O)[C@H]([C@@H](C)O)NC(=O)[C@](C)(C(C)C)NC(=O)[C@H](Cc2ccc(O)cc2)NC(=O)[C@H](C)NC1=O [Compound 072] (Ac-[Aad][Tle]YPT[Trp(7-aza)][Nva]AY[αMeV]T[dK]-NH2; lactam 1-12)
IC50: 1000 to 21000 nM

CCC[C@@H]1NC(=O)[C@H](Cc2ccc(O)cc2)NC(=O)[C@H](C)NC(=O)[C@@](C)(NC(=O)[C@H](Cc2cccc3ccccc23)NC(=O)[C@@H](NC(=O)[C@@H]2CCCN2C(=O)[C@H](Cc2ccc(O)cc2)NC(=O)[C@@H](NC(C)=O)C(C)(C)C)[C@@H](C)O)CCC/C=C/CCC[C@@](C)(C(N)=O)NC1=O [Compound 078] (Ac-[Tle]YPT[1Nal][S5]AY[Nva][S5]-NH2; staple (E) 6-10)
IC50: 1000 to 21000 nM

CCC[C@@H]1NC(=O)[C@H](Cc2c[nH]c3ncccc23)NC(=O)[C@H]([C@@H](C)O)NC(=O)[C@H](Cc2ccco2)NC(=O)[C@H](Cc2ccc(O)cc2)NC(=O)[C@H](C(C)(C)C)NC(=O)CCSCc2cccc(c2)CSC[C@@H](C(N)=O)NC(=O)[C@H]([C@@H](C)O)NC(=O)[C@H](CCC)NC(=O)[C@H](Cc2ccc(O)cc2)NC(=O)[C@H](CCC(=O)O)NC1=O [Compound 117] ([Mpa][Tle]Y[Ala(2-furyl)]T[Trp(7-aza)][Nva]EY[Nva]TC-NH2; linker 1-12 via mXylylene)
IC50: 1000 to 21000 nM

CCC[C@@H]1NC(=O)[C@H](Cc2c[nH]c3ncccc23)NC(=O)[C@H]([C@@H](C)O)NC(=O)[C@H](Cc2ccsc2)NC(=O)[C@H](Cc2ccc(O)cc2)NC(=O)[C@H](C(C)(C)C)NC(=O)CCSCc2cccc(c2)CSC[C@@H](C(N)=O)NC(=O)[C@H]([C@@H](C)O)NC(=O)[C@H](CCC)NC(=O)[C@H](Cc2ccc(O)cc2)NC(=O)[C@H](CCC(=O)O)NC1=O [Compound 119] ([Mpa][Tle]Y[3Thi]T[Trp(7-aza)][Nva]EY[Nva]TC-NH2; linker 1-12 via mXylylene)
IC50: 1000 to 21000 nM

CC(C)[C@H]1C(=O)N[C@@H](Cc2ccccc2)C(=O)N2CCC[C@H]2C(=O)N[C@@H]([C@@H](C)O)C(=O)N[C@@H](Cc2cccc3ccccc23)C(=O)NC(C)(C)C(=O)N[C@@H](C)C(=O)N[C@@H](Cc2ccccc2)C(=O)N[C@@](C)(C(C)C)C(=O)N[C@@H](C)C(=O)NCCSCc2cccc(c2)CSCCC(=O)N1C [Compound 143] (cyclo([1Nal][Aib]AF[αMeV]A[X7][NMeV]FPT))
IC50: 1000 to 21000 nM

CCC[C@H](NC(C)=O)C(=O)N[C@H]1CSCc2cccc(c2)CSC[C@@H](C(N)=O)NC(=O)[C@H]([C@@H](C)O)NC(=O)[C@H](C2CCCCC2)NC(=O)[C@H](Cc2c[nH]c3ncccc23)NC(=O)[C@H](Cc2c[nH]cn2)NC(=O)[C@H](CCC(=O)O)NC(=O)[C@H](Cc2c[nH]c3ncccc23)NC(=O)[C@H]([C@@H](C)O)NC(=O)[C@@H]2CCCN2C(=O)[C@H](Cc2ccc(O)cc2)NC(=O)[C@H](C(C)(C)C)NC1=O [Compound 152] (Ac-[Nva]C[Tle]YPT[Trp(7-aza)]EH[Trp(7-aza)][Chg]TC-NH2; linker 2-13 via mXylylene)
IC50: 1 to 100 nM

CCC[C@H](NC(C)=O)C(=O)N[C@H]1CSCc2cccc(c2)CSC[C@@H](C(N)=O)NC(=O)[C@H]([C@@H](C)O)NC(=O)[C@H](CCC)NC(=O)[C@H](Cc2ccc(O)cc2)NC(=O)[C@H](CCC(=O)O)NC(=O)[C@H](CCC)NC(=O)[C@H](Cc2c[nH]c3ncccc23)NC(=O)[C@H]([C@@H](C)O)NC(=O)[C@@H]2CCCN2C(=O)[C@H](Cc2ccc(O)cc2)NC(=O)[C@H](C(C)(C)C)NC1=O [Compound 153] (Ac-[Nva]C[Tle]YPT[Trp(7-aza)][Nva]EY[Nva]TC-NH2; linker 2-13 via mXylylene)
IC50: 100 to 1000 nM

C[C@@H](O)[C@@H]1NC(=O)[C@H](C2CCCCC2)NC(=O)[C@H](Cc2c[nH]c3ncccc23)NC(=O)[C@H](Cc2c[nH]cn2)NC(=O)[C@H](CCC(=O)O)NC(=O)[C@H](Cc2c[nH]c3ncccc23)NC(=O)[C@H]([C@@H](C)O)NC(=O)[C@@H]2CCCN2C(=O)[C@H](Cc2ccc(O)cc2)NC(=O)[C@H](C(C)(C)C)NC(=O)CCSCc2cccc(c2)CSC[C@@H](C(N)=O)NC1=O [Compound 154] ([Mpa][Tle]YPT[Trp(7-aza)]EH[Trp(7-aza)][Chg]TC-NH2; linker 1-12 via mXylylene)
IC50: 100 to 1000 nM

CCC[C@@H]1NC(=O)[C@H](Cc2c[nH]c3ncccc23)NC(=O)[C@H]([C@@H](C)O)NC(=O)[C@@H]2CCCN2C(=O)[C@H](Cc2ccc(O)cc2)NC(=O)[C@H](C(C)(C)C)NC(=O)CCSCc2cccc(c2)CSC[C@@H](C(N)=O)NC(=O)[C@H]([C@@H](C)O)NC(=O)[C@H](CCC)NC(=O)[C@H](Cc2ccc(O)cc2)NC(=O)[C@H](C)NC1=O [Compound 157] ([Mpa][Tle]YPT[Trp(7-aza)][Nva]AY[Nva]TC-NH2; linker 1-12 via mXylylene)
IC50: 100 to 1000 nM
